{
  "source": "patent US11826453B2",
  "about": "“Hair care composition comprising piroctone olamine” (Conopco, Inc., priority 2019, dated 2023)",
  "experiment": "Octopirox degradation under cool white light (LCMS / UPLC-UV)",
  "type": "physicochemical",
  "settings": "24 hours",
  "method": "The cool white light (CWL) irradiation was carried out in an X-Rite (Macbeth) Spectra Light III chamber. CWL mode was chosen which provides stable irradiation mimicking the indoor light. The intensity of light was fixed which estimated at 6 μw/cm2 for UVA and 1.5 μw/cm^2 for UVB. The chamber temperature was equal to the room temperature (20±2° C.). The sample was placed in a line close to the center of the chamber. After 24 hours, the sample was analyzed by LCMS (Water UPLC coupled with Quatro Micro MS), by quantitatively measured using UPLC-UV analysis following DPS derivatization.\nThe separation was performed by a UPLC BEH C18 column and the mobile phase was acetonitrile/water (60/40, 0.1% formic acid) in isocratic elution. Electrospray ionization in positive mode was applied for MS scan.",
  "data": [
    {"smiles": "Cc1cc(CC(C)CC(C)(C)C)n(O)c(=O)c1.NCCO", "note": "(centres unmarked) [Octopirox®, Piroctone olamine]", "values": [
      {"measurement": "quantity of Octopirox® after cool white light", "setting": "cool white light (indoor light; 6 μw/cm2 UVA, 1.5 μw/cm^2 UVB), 20±2° C.", "value": "reduced"},
      {"measurement": "compound of formula 1 in the degradation product", "setting": "cool white light, LCMS", "value": "no compound of formula 1 can be detected"}
    ]}
  ]
}
